Data: patent US9155329B2, “Flavour compositions” (Givaudan Nederland Services B.V., priority 2005, dated 2015)
Where two headings read alike, the source gives them in different places.

Experiments:
[1] = Carbonated orange flavoured soft drink evaluation; conditions: compared to original drink
Protocol: Two different soft drinks A and B were prepared by adding respectively 40 ppb and 4 ppm of N-lactoyl 2-amino-2-methyl-propanol (as prepared in Example 4) to a commercially available carbonated orange flavoured soft drink.

[2] = Aqueous NaCl solution tasting by a sensory panel; conditions: solution B: 0.5% NaCl and 12 ppm substance; solution A (0.5% NaCl alone) described as salty
Protocol: Two aqueous solutions were prepared: • A. 0.5% NaCl • B. 0.5% NaCl and 12 ppm of N-lactoyl 2-amino-2-methyl-propanol (as prepared in Example 4)

[3] = sample B: ice cream (8% vegetable fat) + strawberry flavour + 7 ppm substance, versus A without substance
Protocol: […] ice cream (8% vegetable fat) samples were prepared: • A: Ice cream (see table 2)+strawberry flavour • B: Ice cream (see table 2)+strawberry flavour+7 ppm N-gluconyl 1-amino-2-methyl-2-propanol (as prepared in Example 5)
The ice creams were tasted by a professional panel.

[4] = standard chicken soup dosed to 5 ppm substance, versus reference soup
Protocol: A standard chicken soup was prepared. The quantity was split in two. One part was kept as reference and the other part was dosed to contain 5 ppm of N-gluconyl 2-amino-2-methyl-propanol (as prepared in Example 8). The soups were tasted by a professional panel.

[5] = Protocol: Four yoghurt samples were prepared: • A: Yoghurt 0% fat+strawberry flavour+sucralose (25%) 300 ppm • B: Yoghurt 0% fat+strawberry flavour+sucralose (25%) 300 ppm+10 ppm N-gluconyl 2-amino-2-methyl-propanol (as prepared in Example 8) • C: Yoghurt 0% fat+strawberry flavour+4% sugar • D: Yoghurt 0% fat+strawberry flavour+4% sugar+10 ppm N-gluconyl 2-amino-2-methyl-propanol (as prepared in Example 8)
The yoghurts were tasted by a professional panel.

CC(O)C(=O)NC(C)(C)CO (stereo not shown) [N-lactoyl 2-amino-2-methyl-propanol, N-lactoyl 2-amino-2-methylpropanol]
taste description ([1]; sample A: 40 ppb substance in commercial carbonated orange flavoured soft drink): more natural, with a more juicy character than the original
taste description ([1]; sample B: 4 ppm substance in commercial carbonated orange flavoured soft drink): tingling character typical of the flavour modulating substances of the present invention, which was judged as very pleasant and particularly well suited for the orange flavour
taste description [2]: “high impact”, “bouillon”, “meaty”, “salty”, “umami” and “salivating”

CC(C)(O)CNC(=O)[C@H](O)[C@@H](O)[C@H](O)[C@H](O)CO [N-gluconyl 1-amino-2-methyl-2-propanol]
taste description [3]: more round and natural taste, very clear sweet enhancement and increased creaminess

CC(C)(CO)NC(=O)[C@H](O)[C@@H](O)[C@H](O)[C@H](O)CO [N-gluconyl 2-amino-2-methyl-propanol, N-gluconyl 2-amino-2-methylpropanol]
taste description [4]: more tasteful, more complete, more body, more fatty
taste description ([5]; sample B: yoghurt 0% fat + strawberry flavour + sucralose (25%) 300 ppm + 10 ppm substance, compared to A without substance): fuller more round and natural taste, more sugar sweetness, significantly less bitter metallic aftertaste compared to A
taste description ([5]; sample D: yoghurt 0% fat + strawberry flavour + 4% sugar + 10 ppm substance, compared to C without substance): fuller more round and natural taste, more intense sweet compared to C
